One series has as its target T1, human 5HT1A receptors (Homo sapiens, UniProt P08908).
T1 construct: expressed in transfected cells; host or cells: CHO cells
T1 sequence (P08908 1-422): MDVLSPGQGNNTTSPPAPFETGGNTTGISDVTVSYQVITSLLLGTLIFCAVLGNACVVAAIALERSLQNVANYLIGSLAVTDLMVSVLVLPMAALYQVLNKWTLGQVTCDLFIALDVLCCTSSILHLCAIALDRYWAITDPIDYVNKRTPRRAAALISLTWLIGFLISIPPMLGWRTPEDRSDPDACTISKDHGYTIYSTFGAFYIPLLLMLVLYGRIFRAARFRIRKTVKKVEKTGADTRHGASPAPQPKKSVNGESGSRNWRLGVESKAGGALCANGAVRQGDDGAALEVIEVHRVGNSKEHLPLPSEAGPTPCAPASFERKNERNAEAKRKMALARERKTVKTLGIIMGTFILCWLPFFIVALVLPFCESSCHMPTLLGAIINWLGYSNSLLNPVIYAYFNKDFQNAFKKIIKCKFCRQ
Put plainly: Displacement of [3H] 8-OH-DPAT from 5HT1A receptor in stably transfected CHO cells. It counts as binding. The note with it: CHO cells with human 5HT1A receptors, read-out: 5HT1A Receptor Affinity Ki. The source says: High affinity for the serotonin 5HT1A receptor was established by testing the claimed compound's ability to displace [^3H] 8-OH-DPAT (dipropylamino-tetralin) from the 5HT1A serotonin receptor following a modification of the procedure of Hall, et al., J. Neurochem. 44, 1685 (1985), which utilizes CHO cells stably transfected with human 5HT1A receptors.
Background: Loss of bound radioactivity is the signal in a displacement assay; it reports binding, not function.

For another series, the target named is T2, serotonin transporter (Rattus norvegicus, UniProt P31652).
T2 construct: displace ^3H-paroxetine from male rat frontal cortical membranes; from tissue; host or cells: male rat frontal cortex membranes
T2 sequence (P31652 whole entry): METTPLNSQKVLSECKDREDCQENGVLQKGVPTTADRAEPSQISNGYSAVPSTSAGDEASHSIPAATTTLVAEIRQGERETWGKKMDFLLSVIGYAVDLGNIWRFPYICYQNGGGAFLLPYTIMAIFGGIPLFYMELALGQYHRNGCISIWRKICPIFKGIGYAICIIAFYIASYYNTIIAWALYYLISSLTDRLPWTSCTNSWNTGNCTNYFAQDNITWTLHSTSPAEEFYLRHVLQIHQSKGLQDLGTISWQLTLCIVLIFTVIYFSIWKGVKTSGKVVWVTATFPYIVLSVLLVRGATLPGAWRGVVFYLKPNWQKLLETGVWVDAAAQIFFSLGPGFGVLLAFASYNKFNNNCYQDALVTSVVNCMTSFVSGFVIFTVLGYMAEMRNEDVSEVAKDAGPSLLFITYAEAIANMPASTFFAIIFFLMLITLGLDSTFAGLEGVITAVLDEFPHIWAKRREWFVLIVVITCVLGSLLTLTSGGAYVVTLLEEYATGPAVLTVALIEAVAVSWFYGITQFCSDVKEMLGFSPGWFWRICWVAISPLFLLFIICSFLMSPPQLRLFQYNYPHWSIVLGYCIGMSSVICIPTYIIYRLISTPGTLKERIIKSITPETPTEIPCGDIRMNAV
The experiment in a line: Displacement of 3H-paroxetine from male rat frontal cortical membranes (serotonin transporter affinity). It counts as binding. The note with it: read-out: 5-HT Transporter Affinity Ki.

Series [1] deals with T3, cloned human 5HT1A receptors (Homo sapiens, UniProt P08908).
T3 construct: expressed in transfected cells
T3 sequence (P08908 1-422): T1 sequence (P08908 1-422)
The experiment in a line: 35S-GTPγS binding assay, membranes containing cloned human 5HT1A receptors. The format is biochemical. The note with it: for IC50: antagonist potency, reversal of the standard agonist 8-OH-DPAT, read-out: 5HT1A Function IC50; for 5HT1A Function (Imax): maximum inhibitory effect, value in parentheses. How it is done: Antagonist activity at 5HT1A receptors was established by using a ^35S-GTPγS binding assay similar to that used by Lazareno and Birdsall (Br. J. Pharmacol. 109:1120, 1993), in which the test compound's ability to affect the binding of ^35S-GTPγS to membranes containing cloned human 5HT1A receptors was determined. Agonists produce an increase in binding whereas antagonists produce no increase but rather reverse the effects of the standard agonist 8-OH-DPAT. The test compound's maximum inhibitory effect is represented as the Imax, while its potency is defined by the IC50.
(GTPγS is a poorly hydrolysed GTP analogue; its binding reports G protein activation.)

Molecules are shown by their SMILES. Where a name gives a salt, the structure may show the parent alone.

Take `Cc1nc2ccc3c(c2o1)O[C@@H](CN[C@H]1CC[C@@H](c2c[nH]c4ccc(F)cc42)CC1)CO3` [Example 12]: the melting point (commonly the temperature of the solid-liquid transition) lay in the range of 80 to 82 °C. Also, on human 5HT1A receptors, the Ki – broadly, the equilibrium dissociation constant of an inhibitor or competing ligand from its target – is 84.4 nM. Besides, the Ki at serotonin transporter came out at 11 nM.

`Cc1ccc2c3c(ccc2n1)OC[C@H](CN[C@H]1CC[C@@H](c2c[nH]c4ccc(F)cc24)C1)O3` (mixture of isomers) (as salt: HCl) (hydrate or solvate) [Example 3, N-[(cis)-3-(5-fluoro-1H-indol-3-yl)cyclopentyl]-N-{[(2S)-8-methyl-2,3-dihydro[1,4]dioxino[2,3-f]quinolin-2-yl]methyl}amine]: the melting point is 234 to 235 °C.

In the case of `Cc1nc2ccc3c(c2o1)O[C@@H](CN[C@H]1CC[C@@H](c2c[nH]c4ccc(F)cc24)C1)CO3` (mixture of isomers) [Example 11, N-[(cis)-3-(5-Fluoro-1H-indol-3-yl)cyclopentyl]-N-{[(8S)-2-methyl-7,8-dihydro[1,4]dioxino[2,3-g][1,3]benzoxazol-8-yl]methyl}amine], the melting point lay in the range of 79 to 82 °C. Moreover, in series [1], the IC50 (usually the concentration that inhibits the measured activity by half) was 274 nM and the 5HT1A Function (Imax) came out at 100%. Besides, the Ki on human 5HT1A receptors amounted to 16.4 nM. Also, the Ki on serotonin transporter was found to be 1.46 nM.

In turn, `Cc1nc2ccc3c(c2o1)O[C@@H](CN[C@H]1CC[C@H](c2c[nH]c4ccc(F)cc24)C1)CO3` (mixture of isomers) [Example 10, N-[(trans)-3-(5-Fluoro-1H-indol-3-yl)cyclopentyl]-N-{[(8S)-2-methyl-7,8-dihydro[1,4]dioxino[2,3-g][1,3]benzoxazol-8-yl]methyl}amine] showed a melting point of 79 to 82 °C. Moreover, in series [1], the IC50 worked out at 172 nM and the 5HT1A Function (Imax) is 85%. For the same compound, at human 5HT1A receptors, the Ki came out at 28.6 nM. Moreover, the Ki on serotonin transporter came out at 1.38 nM.

These data come from patent publication US6911445B2, “Antidepressant cycloalkylamine derivatives of heterocycle-fused benzodioxans” (Wyeth, priority 2002, dated 2005).
